In US20070049564A1 (Wyeth, priority 2005, published 2007):
Like-named read-outs stand apart in the source and are kept apart here.

What was measured:
E. coli GC 2236 = experiment: MIC, broth microdilution; details: Escherichia coli, GC2236, read-out: MINIMAL INHIBITORY CONCENTRATION MIC, pre-incubated in Water
E. coli GC 2231 = experiment: MIC, broth microdilution; details: Escherichia coli, GC2231, read-out: MINIMAL INHIBITORY CONCENTRATION MIC, pre-incubated in Water
E. coli GC 2232 = experiment: MIC, broth microdilution; details: Escherichia coli, GC2232, read-out: MINIMAL INHIBITORY CONCENTRATION MIC, pre-incubated in Water
E. coli GC 2272 = experiment: MIC, broth microdilution; details: Escherichia coli, GC2272, read-out: MINIMAL INHIBITORY CONCENTRATION MIC, pre-incubated in Water
P. aeruginosa GC 2214 = experiment: MIC, broth microdilution; details: Pseudomonas aeruginosa
S. aureus GC 1131 = experiment: MIC, broth microdilution; details: Staphylococcus aureus
S. aureus GC 4536 = experiment: MIC, broth microdilution; details: for MIC: Staphylococcus aureus
S. aureus GC 2216 = experiment: MIC, broth microdilution; details: Staphylococcus aureus
Procedure: Antimicrobial susceptibility testing. The in vitro activities of the antibiotics are determined by the broth microdilution method as recommended by the National Committee for Clinical Laboratory Standards (NCCLS) (1). Mueller-Hinton II broth (MHBII)(BBL Cockeysville, Md.) is the medium employed in the testing procedures. Microtiter plates containing serial dilutions of each antimicrobial agent are inoculated with each organism to yield the appropriate density (10^5 CFU/ml) in a 100 μl final volume. The plates are incubated for 18-22 hours at 35° C. in ambient air. […] Standard Pharmacological Test Procedures
Presented in Tables I-XIII are representative compounds of Formula I which were evaluated against a panel of 40 selected gram-positive and gram-negative bacteria strains by pre-incubation in water, mouse serum or human serum. Representative compounds were first incubated in mouse serum for an hour prior to the in vitro testing against a panel of selected gram-positive and gram-negative bacteria strains. All compounds were also pre-incubated in water for an hour prior to testing as control. Representative compounds of Formula I were incubated in human serum prior to MIC determination.

S. epidermidis GC 4935 = experiment: MIC, broth microdilution; details: Staphylococcus epidermidis
E. faecalis GC 4555 = experiment: MIC, broth microdilution; details: for MIC: Enterococcus faecalis
E. faecalis GC 2265 = experiment: MIC, broth microdilution; details: for MIC: Enterococcus faecalis
E. faecalis GC 2267 = experiment: MIC, broth microdilution; details: for MIC: Enterococcus faecalis
E. faecalis GC 2242 = experiment: MIC, broth microdilution; details: Enterococcus faecalis
E. faecium GC 2243 = experiment: MIC, broth microdilution; details: for MIC: Enterococcus faecium
S. pneumoniae* GC 4465 = experiment: MIC, broth microdilution; details: for MIC: Streptococcus pneumoniae
Procedure: Antimicrobial susceptibility testing. The in vitro activities of the antibiotics are determined by the broth microdilution method as recommended by the National Committee for Clinical Laboratory Standards (NCCLS) (1). Mueller-Hinton II broth (MHBII)(BBL Cockeysville, Md.) is the medium employed in the testing procedures. Microtiter plates containing serial dilutions of each antimicrobial agent are inoculated with each organism to yield the appropriate density (10^5 CFU/ml) in a 100 μl final volume. The plates are incubated for 18-22 hours at 35° C. in ambient air.
Representative compounds were first incubated in mouse serum for an hour prior to the in vitro testing against a panel of selected gram-positive and gram-negative bacteria strains. All compounds were also pre-incubated in water for an hour prior to testing as control. Representative compounds of Formula I were incubated in human serum prior to MIC determination.

S. pneumoniae+ GC 4465 = experiment: MIC, broth microdilution; details: for MIC: Streptococcus pneumoniae
c. albicans GC 3066 = experiment: MIC, broth microdilution
E. coli = experiment: Range of MIC for E. coli strains; details: Escherichia coli
Staph. = experiment: Range of MIC for Staph. strains, including MRSA; details: Staphylococcus aureus
Staph. aureus Smith = experiment: In vivo activity (oral, iv; ED50) against Staph. aureus Smith in mice
Procedure: Representative examples of compounds of Formula I were tested for the oral efficacy using S. aureus Smith in mice.

[1] = read-out: MINIMAL INHIBITORY CONCENTRATION MIC, pre-incubated in Mouse Serum
[2] = read-out: MINIMAL INHIBITORY CONCENTRATION MIC, pre-incubated in Water

CN(C)c1cc(NC(=O)CN(C(=O)OCOC(=O)CC(C)(C)C)C(C)(C)C)c(O)c2c1C[C@H]1C[C@H]3[C@H](N(C)C)C(O)=C(C(N)=O)C(=O)[C@@]3(O)C(O)=C1C2=O [Example 42, ({[(2-{[(5aR,6aS,7S,10aS)-9-(aminocarbonyl)-4,7-bis(dimethylamino)-1,8,10a,11-tetrahydroxy-10,12-dioxo-5,5a,6,6a,7,10,10a,12-octahydrotetracen-2-yl]amino}-2-oxoethyl)(tert-butyl)amino]carbonyl}oxy)methyl 3,3-dimethylbutanoate]
5.68 mg/kg: ED50 (Staph. aureus Smith; Staphylococcus aureus, in Mus musculus, po, read-out: ED50 SOD (Staph aureus Smith)) | ED50 (Staph. aureus Smith; Staphylococcus aureus, in Mus musculus, po, read-out: ED50 Staph Smith SOD)
> 64 µg/mL: MIC (E. coli GC 2236) | MIC (E. coli GC 2231) | MIC (E. coli GC 2232) | MIC (E. coli GC 2272) | MIC (P. aeruginosa GC 2214; GC2214, read-out: MINIMAL INHIBITORY CONCENTRATION MIC, pre-incubated in Mouse Serum) | MIC (P. aeruginosa GC 2214; GC2214, read-out: MINIMAL INHIBITORY CONCENTRATION MIC, pre-incubated in Water) | MIC (c. albicans GC 3066; Candida albicans, GC3066, read-out: MINIMAL INHIBITORY CONCENTRATION MIC) | MIC (E. coli; read-out: Minimum inhibitory concentration (MIC), E. coli (Human Serum)) | MIC (E. coli; read-out: Minimum inhibitory concentration (MIC), E. coli (water)) | MIC (E. coli; read-out: Range of MIC, E. coli (Water))
8 UG/ML: MINIMAL INHIBITORY CONCENTRATION MIC (S. pneumoniae+ GC 4465; pre-incubated in Mouse Serum)
4 UG/ML: MINIMAL INHIBITORY CONCENTRATION MIC (S. aureus GC 4536; pre-incubated in Mouse Serum) | MINIMAL INHIBITORY CONCENTRATION MIC (E. faecalis GC 4555; pre-incubated in Mouse Serum) | MINIMAL INHIBITORY CONCENTRATION MIC (E. faecalis GC 2265; pre-incubated in Mouse Serum) | MINIMAL INHIBITORY CONCENTRATION MIC (E. faecalis GC 2267; pre-incubated in Mouse Serum) | MINIMAL INHIBITORY CONCENTRATION MIC (E. faecium GC 2243; pre-incubated in Mouse Serum) | MINIMAL INHIBITORY CONCENTRATION MIC (S. pneumoniae* GC 4465; pre-incubated in Mouse Serum)
8 µg/mL: MIC (S. aureus GC 4536; GC4536, read-out: MINIMAL INHIBITORY CONCENTRATION MIC, pre-incubated in Water) | MIC (S. epidermidis GC 4935; GC4935, read-out: MINIMAL INHIBITORY CONCENTRATION MIC, pre-incubated in Water) | MIC (E. faecalis GC 2265; GC2265, read-out: MINIMAL INHIBITORY CONCENTRATION MIC, pre-incubated in Water) | MIC (E. faecalis GC 2242; GC2242, read-out: MINIMAL INHIBITORY CONCENTRATION MIC, pre-incubated in Water) | MIC (S. pneumoniae+ GC 4465; [2])
4 µg/mL: MIC (S. aureus GC 1131; GC1131, read-out: MINIMAL INHIBITORY CONCENTRATION MIC, pre-incubated in Water) | MIC (S. aureus GC 2216; GC2216, read-out: MINIMAL INHIBITORY CONCENTRATION MIC, pre-incubated in Water) | MIC (S. epidermidis GC 4935; GC4935, read-out: MINIMAL INHIBITORY CONCENTRATION MIC, pre-incubated in Mouse Serum) | MIC (E. faecalis GC 4555; GC4555, read-out: MINIMAL INHIBITORY CONCENTRATION MIC, pre-incubated in Water) | MIC (E. faecalis GC 2267; GC2267, read-out: MINIMAL INHIBITORY CONCENTRATION MIC, pre-incubated in Water) | MIC (E. faecalis GC 2242; GC2242, read-out: MINIMAL INHIBITORY CONCENTRATION MIC, pre-incubated in Mouse Serum) | MIC (E. faecium GC 2243; GC2243, read-out: MINIMAL INHIBITORY CONCENTRATION MIC, pre-incubated in Water) | MIC (S. pneumoniae* GC 4465; [2]) | MIC (S. pneumoniae+ GC 4465; [1])
1.43 mg/kg: ED50 (Staph. aureus Smith; Staphylococcus aureus, in Mus musculus, iv, read-out: ED50 SIV (Staph aureus Smith)) | ED50 (Staph. aureus Smith; iv, read-out: ED50 Staph Smith SIV)
2 to 4 µg/mL: MIC (Staph.; MRSA, read-out: Range of MIC, Staph (Mouse Serum)) | MIC (Staph.; read-out: Minimum inhibitory concentration (MIC), Staph (Human Serum))
2 µg/mL: MIC (S. aureus GC 1131; GC1131, read-out: MINIMAL INHIBITORY CONCENTRATION MIC, pre-incubated in Mouse Serum) | MIC (S. aureus GC 4536; GC4536, read-out: MINIMAL INHIBITORY CONCENTRATION MIC, pre-incubated in Mouse Serum) | MIC (S. aureus GC 2216; GC2216, read-out: MINIMAL INHIBITORY CONCENTRATION MIC, pre-incubated in Mouse Serum) | MIC (E. faecalis GC 4555; GC4555, read-out: MINIMAL INHIBITORY CONCENTRATION MIC, pre-incubated in Mouse Serum) | MIC (E. faecalis GC 2265; GC2265, read-out: MINIMAL INHIBITORY CONCENTRATION MIC, pre-incubated in Mouse Serum) | MIC (E. faecalis GC 2267; GC2267, read-out: MINIMAL INHIBITORY CONCENTRATION MIC, pre-incubated in Mouse Serum) | MIC (E. faecium GC 2243; GC2243, read-out: MINIMAL INHIBITORY CONCENTRATION MIC, pre-incubated in Mouse Serum) | MIC (S. pneumoniae* GC 4465; [1])
4 to 16 µg/mL: MIC (E. coli; 20 h, read-out: Range of MIC, E. coli (Mouse Serum))
>64 UG/ML: MINIMAL INHIBITORY CONCENTRATION MIC (c. albicans GC 3066; pre-incubated in Mouse Serum)
4 to 8 µg/mL: MIC (Staph.; MRSA, read-out: Range of MIC, Staph (Water)) | MIC (Staph.; read-out: Minimum inhibitory concentration (MIC), Staph (Water))
